Data taken from US10221163B2 (priority 2015, dated 2019).
Read-outs that look alike come from different tables or passages of the source.

Assays:
VIM-1 = VIM-1 (Pseudomonas aeruginosa (strain ATCC 15692 / DSM 22644 / CIP 104116 / JCM 14847 / LMG 12228 / 1C / PRS 101 / PAO1), UniProt A0A0F7KYQ8); assay: biochemical; conditions: CCF2-FA substrate, 30 pM enzyme, 2 hours at 25° C.
Outline: (§1)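 Enzyme activity was measured by fluorescence using CCF2-FA, a cephalosporin-linked 7-hydroxycoumarin/fluorescein substrate, with inhibitor, metallo-β-lactamase and substrate incubated together for 2 hours at 25° C. IC50 came from a 4-parameter fit of inhibition versus log inhibitor concentration.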

IMP-1 = IMP-1 (Serratia marcescens, UniProt P52699); assay: biochemical; format: biochemical; conditions: fluorescence assay, CCF2-FA substrate, 2 pM enzyme, 2 hours at 25° C.; read-out: IMP-1 IC50
Outline: as §1

NDM-1 = NDM-1 (Klebsiella pneumoniae, UniProt C7C422); assay: biochemical; format: biochemical; conditions: fluorescence assay, CCF2-FA substrate, 1 pM enzyme, 2 hours at 25° C.; read-out: NDM-1 IC50
Outline: as §1

[1] = tested on: Pseudomonas aeruginosa efflux+ (MB9798), IMP-1; format: cell-based; parameters: Concentration of metallo-β-lactamase inhibitor which restores susceptibility of efflux + (MB9798) strain to imipenem: unit not given here; conditions: efflux+ MB9798; imipenem at 2 μg/mL; in the presence of a class A, C, D serine β-lactamase inhibitor closely related to relebactam
Outline: (§2)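 Microbroth MIC tests in PAO1-background strains with fixed imipenem and/or ceftazidime, usually at the CLSI breakpoint, plus fixed class A/C β-lactamase inhibitor against AmpC. MBL inhibitor titrated; concentration restoring susceptibility recorded and compared as fold difference between efflux+ MB9798 and efflux− MB9799.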

[2] = tested on: Klebsiella pneumoniae expressing VIM-1 (IHMA599644); format: cell-based; conditions: VIM-1 strain IHMA599644, with imipenem 1 μg/ml, 95% inhibition of growth
Outline: (§3)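 Imipenem 1 μg/ml + inhibitor; MBL-expressing clinical strains in 1.1×CAMHB, inoculum from saline suspension diluted 1:100; 35° C, 22–24 h; absorbance read-out.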

[3] = tested on: Serratia marcescens expressing IMP-1 (CL5741); format: cell-based; conditions: IMP-1 strain CL5741, with imipenem 1 μg/ml, 95% inhibition of growth
Outline: as §3

[4] = tested on: Escherichia coli expressing NDM-1 (CLB30005, CLB30016); format: cell-based; conditions: NDM-1 strain, with imipenem 1 μg/ml, 95% inhibition of growth
Outline: as §3

[5] = tested on: Pseudomonas aeruginosa MB9798 vs MB9799; conditions: fold difference between efflux+ (MB9798) and efflux− (MB9799) strains; imipenem at 2 μg/mL
Outline: as §2

[6] = tested on: Pseudomonas aeruginosa efflux− (MB9799), IMP-1; format: cell-based; conditions: efflux− MB9799; imipenem at 2 μg/mL; in the presence of a class A, C, D serine β-lactamase inhibitor closely related to relebactam
Outline: as §2

[7] = fluorescence assay, read-out: VIM-1 IC50

NDM-1, sequence (C7C422 whole entry, looked up, species assumed): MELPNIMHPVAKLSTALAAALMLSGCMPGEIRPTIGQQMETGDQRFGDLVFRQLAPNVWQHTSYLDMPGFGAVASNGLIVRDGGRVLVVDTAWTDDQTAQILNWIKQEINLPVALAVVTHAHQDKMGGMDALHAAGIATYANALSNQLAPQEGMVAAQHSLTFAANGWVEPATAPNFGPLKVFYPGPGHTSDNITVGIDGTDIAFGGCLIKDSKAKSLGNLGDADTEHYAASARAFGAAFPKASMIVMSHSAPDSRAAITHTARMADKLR
IMP-1, sequence (P52699 whole entry, looked up, species assumed): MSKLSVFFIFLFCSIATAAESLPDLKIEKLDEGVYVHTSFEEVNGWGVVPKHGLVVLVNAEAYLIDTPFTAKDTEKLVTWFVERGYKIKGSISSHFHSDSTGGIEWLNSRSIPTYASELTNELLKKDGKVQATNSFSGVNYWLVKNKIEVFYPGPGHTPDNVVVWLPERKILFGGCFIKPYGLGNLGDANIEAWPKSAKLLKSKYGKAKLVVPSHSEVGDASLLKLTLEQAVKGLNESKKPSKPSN

Compound	IC50 (VIM-1; [7]) [pM]	IC50 (IMP-1) [pM]	IC50 (NDM-1) [pM]	Concentration of metallo-β-lactamase inhibitor which restores susceptibility of efflux + (MB9798) strain to imipenem [1]	Klebsiella pneumoniae MITC95 [2] [µM]	Serratia marcescens MITC95 [3] [µM]	Escherichia coli MITC95 [4] [µM]	Efflux ratio [5]	Concentration of metallo-β-lactamase inhibitor which restores susceptibility of efflux − (MB9799) strain to imipenem [6]	IC50 (VIM-1; VIM-1 IC50, fluorescence assay) [pM]
NCCNS(=O)(=O)c1ccc(-c2cccc3[nH]c(C(F)(F)CN)nc23)c(-c2nn[nH]n2)c1S(N)(=O)=O [Example 445, 4-(2-(2-amino-1,1-difluoroethyl)-1H-benzo[d]imidazol-4-yl)-N1-(2-aminoethyl)-3-(2H-tetrazol-5-yl)benzene-1,2-disulfonamide]	114	370	44.6	1.563	3.125	3.125	3.125	1.00	1.563	–
NCC(F)(F)c1nc2c(-c3ccc(S(=O)(=O)N[C@H]4CCNC4)c(S(N)(=O)=O)c3-c3nn[nH]n3)cccc2[nH]1 [Example 446, (S)-4-(2-(2-amino-1,1-difluoroethyl)-1H-benzo[d]imidazol-4-yl)-N1-(pyrrolidin-3-yl)-3-(2H-tetrazol-5-yl)benzene-1,2-disulfonamide]	153	446	56.9	3.125	3.125	3.125	1.563	2.00	1.563	–
NCCNC(=O)c1cc(Cl)cc(-c2ccc(S(=O)(=O)NCCN)c(S(N)(=O)=O)c2-c2nn[nH]n2)c1N [Example 447, 2-Amino-N-(2-aminoethyl)-4′-(N-(2-aminoethyl)sulfamoyl)-5-chloro-3′-sulfamoyl-2′-(2H-tetrazol-5-yl)-[1,1′-biphenyl]-3-carboxamide]	–	1600	646	1.563	1.563	0.7813	0.7813	2.00	0.7813	180
Nc1nc2c(-c3ccc(S(=O)(=O)N[C@@H]4C[C@H]4N)c(S(N)(=O)=O)c3-c3nnn[nH]3)cccc2[nH]1 [Example 448, 4-(2-amino-1H-benzo[d]imidazol-4-yl)-N^1-((1R,2R)-2-aminocyclopropyl)-3-(1H-tetrazol-5-yl)benzene-1,2-disulfonamide]	557	988	151	1.563	6.25	1.563	0.7813	0.50	3.125	–
CN(CCN)S(=O)(=O)c1ccc(-c2cccc3[nH]c(N)nc23)c(-c2nn[nH]n2)c1S(N)(=O)=O [Example 449, 4-(2-amino-1H-benzo[d]imidazol-4-yl)-N^1-(2-aminoethyl)-N^1-methyl-3-(2H-tetrazol-5-yl)benzene-1,2-disulfonamide]	–	11800	7730	6.25	12.5	1.563	0.7813	4.00	1.563	27800
